{"source": "patent US20100099793A1", "about": "“Gluing and Sealing Compounds Having Antimicrobial Properties” (Thor GmbH, priority 2006, published 2010)", "key": {"[1]": {"test": "Analysis for active in the sealant without and after water storage (retention / leaching)", "format": "physicochemical", "details": "silicone; for Active [ppm] Oit: oxime basis, 1000 ppm added", "description": "These sections, described below as test specimens, were subjected, both without water storage and after 2 days of water storage in fully demineralized water, with a change of water at 24 hours, to the ISO 846 test, part B. In this test, the test specimens were placed on carbon-containing nutrient media (complete agar) for monitoring of the fungicidal action, and were then sprayed with a mixture of fungal spores; 0.1 ml of suspension per test specimen.\nThese sealants were analyzed for the amounts of OIT present, both without water storage and after 2 days of water storage, and the leaching (%) was calculated."}, "[2]": {"test_system": "mixture of fungal spores (Aspergillus niger, Alternaria alternata, Penicillium funiculosum, Paecilomyces variotii, Gliocladium virens, Chaetomium globosum)", "test": "Microbiological test along the lines of EN ISO 846 part B: fungal growth on sealant test specimens on complete agar", "format": "cell-based", "design": "key to Fungal growth after 28 d Method B Complete agar a / Fungal growth after 28 d Method B Complete agar b: 0: No growth evident when viewed with a microscope.; 1: Slight growth, no growth evident to the naked eye, readily apparent microscopically.; Slight growth, readily apparent macroscopically, growth over not more than 25% of the sample surface.; 3: Moderate growth, growth over up to 50% of the sample surface.; 4: Severe growth, growth over more than 50% of the sample surface, but not over the entire area.; 5: Severe growth over the entire sample surface", "details": "silicone; for Fungal growth after 28 d Method B Complete agar a: duplicate a; for Fungal growth after 28 d Method B Complete agar b: duplicate b", "description": "The microbiological tests were carried out each in duplicate determinations along the lines of the standard EN ISO 846 B. For this purpose the sealants themselves were applied to inert support material (e.g., glass plates) approximately 2 mm thick, and, after curing, were cut into sections measuring 3×3 cm.\n[…] In this test, the test specimens were placed on carbon-containing nutrient media (complete agar) for monitoring of the fungicidal action, and were then sprayed with a mixture of fungal spores; 0.1 ml of suspension per test specimen.\nThe spore suspension contained 10^6 CFU/ml and comprised the following fungi:\nThe samples thus inoculated were incubated at 25° C. for 28 days. This was followed by a visual evaluation of the sample surface. Where no growth was evident with the naked eye, the test took place with the assistance of a microscope. The ISO 846 tests were evaluated using the following scheme: • 0 No growth evident when viewed with a microscope. • 1 Slight growth, no growth evident to the naked eye, readily apparent microscopically. • 2 Slight growth, readily apparent macroscopically, growth over not more than 25% of the sample surface. • 3 Moderate growth, growth over up to 50% of the sample surface. • 4 Severe growth, growth over more than 50% of the sample surface, but not over the entire area. • 5 Severe growth over the entire sample surface."}, "[3]": {"details": "acetoxy basis, 500 ppm, water storage 0 d"}, "[4]": {"details": "acetoxy basis, 500 ppm, water storage 3 months (once a week 24 hour storage in fully demineralized water)"}, "[5]": {"details": "acetoxy basis, 1000 ppm, water storage 0 d"}, "[6]": {"details": "acetoxy basis, 1000 ppm, water storage 3 months (once a week 24 hour storage in fully demineralized water)"}, "[7]": {"details": "oxime basis, 500 ppm, water storage 0 d"}, "[8]": {"details": "oxime basis, 500 ppm, water storage 2 d"}, "[9]": {"details": "oxime basis, 1000 ppm, water storage 0 d"}, "[10]": {"details": "oxime basis, 1000 ppm, water storage 2 d"}}}
{"smiles": "CCCCCCCCn1sccc1=O", "note": "[OIT, 2-n-octyl-4-isothiazolin-3-one]", "values": [{"measurement": "Amount of active (ppm) With water storage", "setting": "[1]; acetoxy system, 400 ppm of OIT introduced, after 2 days of water storage", "result": 265, "unit": "ppm"}, {"measurement": "% leaching", "setting": "[1]; acetoxy system, 400 ppm of OIT introduced, calculated from amounts without and after 2 days of water storage", "result": 37, "unit": "%"}, {"measurement": "Amount of active (ppm) Without water storage", "setting": "[1]; acetoxy system, 400 ppm of OIT introduced, without water storage", "result": 420, "unit": "ppm"}, {"measurement": "Active [ppm] Oit", "setting": "[1]; 0 d (before water storage)", "result": 740, "unit": "ppm"}, {"measurement": "Active [ppm] Oit", "setting": "[1]; 2 d (after water storage)", "result": 230, "unit": "ppm"}, {"measurement": "Fungal growth after 28 d Method B Complete agar a", "setting": "[2]; [3]", "result": 1}, {"measurement": "Fungal growth after 28 d Method B Complete agar b", "setting": "[2]; [3]", "result": "2 (Slight growth, readily apparent macroscopically, growth over not more than 25% of the sample surface.)"}, {"measurement": "Fungal growth after 28 d Method B Complete agar a", "setting": "[2]; [4]", "result": 5}, {"measurement": "Fungal growth after 28 d Method B Complete agar b", "setting": "[2]; [4]", "result": 5}, {"measurement": "Fungal growth after 28 d Method B Complete agar a", "setting": "[2]; [5]", "result": 0}, {"measurement": "Fungal growth after 28 d Method B Complete agar b", "setting": "[2]; [5]", "result": 0}, {"measurement": "Fungal growth after 28 d Method B Complete agar a", "setting": "[2]; [6]", "result": "4 (Severe growth, growth over more than 50% of the sample surface, but not over the entire area.)"}, {"measurement": "Fungal growth after 28 d Method B Complete agar b", "setting": "[2]; [6]", "result": 5}, {"measurement": "fungal growth (in words)", "setting": "[2]; acetoxy basis, after the 3-month water storage cycles", "result": "heavily overgrown"}, {"measurement": "fungal growth / action (in words)", "setting": "[2]; acetoxy basis, without water storage (0d)", "result": "good action"}, {"measurement": "Fungal growth after 28 d Method B Complete agar a", "setting": "[2]; [7]", "result": 0}, {"measurement": "Fungal growth after 28 d Method B Complete agar b", "setting": "[2]; [7]", "result": 1}, {"measurement": "Fungal growth after 28 d Method B Complete agar a", "setting": "[2]; [8]", "result": "3 (Moderate growth, growth over up to 50% of the sample surface.)"}, {"measurement": "Fungal growth after 28 d Method B Complete agar b", "setting": "[2]; [8]", "result": "3 (Moderate growth, growth over up to 50% of the sample surface.)"}, {"measurement": "Fungal growth after 28 d Method B Complete agar a", "setting": "[2]; [9]", "result": 0}, {"measurement": "Fungal growth after 28 d Method B Complete agar b", "setting": "[2]; [9]", "result": 0}, {"measurement": "Fungal growth after 28 d Method B Complete agar a", "setting": "[2]; [10]", "result": "3 (Moderate growth, growth over up to 50% of the sample surface.)"}, {"measurement": "Fungal growth after 28 d Method B Complete agar b", "setting": "[2]; [10]", "result": "2 (Slight growth, readily apparent macroscopically, growth over not more than 25% of the sample surface.)"}, {"measurement": "fungal growth (in words)", "setting": "[2]; oxime basis, after water storage (2d)", "result": "moderately severe growth"}]}
{"smiles": "COC(=O)Nc1nc2ccccc2[nH]1", "note": "[carbendazim]", "values": [{"measurement": "Fungal growth after 28 d Method B Complete agar a", "setting": "[2]; [3]", "result": "3 (Moderate growth, growth over up to 50% of the sample surface.)"}, {"measurement": "Fungal growth after 28 d Method B Complete agar b", "setting": "[2]; [3]", "result": "4 (Severe growth, growth over more than 50% of the sample surface, but not over the entire area.)"}, {"measurement": "Fungal growth after 28 d Method B Complete agar a", "setting": "[2]; [4]", "result": 5}, {"measurement": "Fungal growth after 28 d Method B Complete agar b", "setting": "[2]; [4]", "result": 5}, {"measurement": "fungal colonization (in words)", "setting": "[2]; acetoxy basis, 1000 ppm of active, without water storage (0d)", "result": "slight colonization"}, {"measurement": "Fungal growth after 28 d Method B Complete agar a", "setting": "[2]; [5]", "result": "2 (Slight growth, readily apparent macroscopically, growth over not more than 25% of the sample surface.)"}, {"measurement": "Fungal growth after 28 d Method B Complete agar b", "setting": "[2]; [5]", "result": "2 (Slight growth, readily apparent macroscopically, growth over not more than 25% of the sample surface.)"}, {"measurement": "Fungal growth after 28 d Method B Complete agar a", "setting": "[2]; [6]", "result": "4 (Severe growth, growth over more than 50% of the sample surface, but not over the entire area.)"}, {"measurement": "Fungal growth after 28 d Method B Complete agar b", "setting": "[2]; [6]", "result": 5}, {"measurement": "fungal growth (in words)", "setting": "[2]; acetoxy basis, both 500 and 1000 ppm, after the 3-month water storage cycle", "result": "severe fungal growth"}]}
